Results taken from PubChem BioAssay AID1845197 (Molecular Pharmacology Branch, DTP, NCI, 2023).

Test system: 349418-098-R tumor spheroid viability
Assay: Anticancer human tumor 349418-098-R patient-derived lung adenocarcinoma cell line growth inhibition
Settings: spheroids with HUVEC and MSC; for IC50: curve of first compound; for viability, T/C: stronger effect = lower value
Procedure, shortened: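 Complex tumor spheroids combined malignant cells with endothelial cells and mesenchymal stem cells. DNA-damaging drugs and DNA repair inhibitors were tested alone and in combination, at half-log dilutions down from clinical Cmax (top 10 microM if Cmax unknown), 0.25% DMSO final.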

[1] = second compound 1 µM, first compound 0.00949 µM
[2] = second compound 1 µM, first compound 0.03 µM
[3] = second compound 1 µM, first compound 0.0949 µM
[4] = second compound 1 µM, first compound 0.3 µM
[5] = second compound 1 µM, first compound 0.949 µM
[6] = second compound 1 µM, first compound 3 µM
[7] = second compound 3.16 µM, first compound 0.00949 µM
[8] = second compound 3.16 µM, first compound 0.03 µM
[9] = second compound 3.16 µM, first compound 0.0949 µM
[10] = second compound 3.16 µM, first compound 0.3 µM
[11] = second compound 3.16 µM, first compound 0.949 µM
[12] = second compound 3.16 µM, first compound 3 µM
[13] = second compound 10 µM, first compound 0.00949 µM
[14] = second compound 10 µM, first compound 0.03 µM
[15] = second compound 10 µM, first compound 0.0949 µM
[16] = second compound 10 µM, first compound 0.3 µM
[17] = second compound 10 µM, first compound 0.949 µM
[18] = second compound 10 µM, first compound 3 µM
[19] = second compound 31.6 µM, first compound 0.00949 µM
[20] = second compound 31.6 µM, first compound 0.03 µM
[21] = second compound 31.6 µM, first compound 0.0949 µM
[22] = second compound 31.6 µM, first compound 0.3 µM
[23] = second compound 31.6 µM, first compound 0.949 µM
[24] = second compound 31.6 µM, first compound 3 µM
[25] = second compound 100 µM, first compound 0.00949 µM
[26] = second compound 100 µM, first compound 0.03 µM
[27] = second compound 100 µM, first compound 0.0949 µM
[28] = second compound 100 µM, first compound 0.3 µM
[29] = second compound 100 µM, first compound 0.949 µM
[30] = second compound 100 µM, first compound 3 µM
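Also: spheroids exposed to compound for 7 days before measurement.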
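For viability, T/C in this document: percent of vehicle control viability with 100% = DMSO-treated spheroids.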

In the case of `CNCc1ccc(-c2cc(-c3nc(-c4ccc(S(=O)(=O)C(C)C)cc4)cnc3N)on2)cc1` + Cn1nnc2c(C(N)=O)ncn2c1=O, the IC50 (second compound 1 µM) is reported as 275 nM, the IC50 (second compound 3.16 µM) is reported as 382 nM and the IC50 (second compound 10 µM) is reported as 401 nM. It also gave an IC50 (second compound 31.6 µM) of 260 nM, an IC50 (second compound 100 µM) of 214 nM and a viability, T/C [1] of 103%. For the same compound, the viability, T/C [2] was 100%, the viability, T/C [3] was 99.6% and the viability, T/C [4] was 45.4%. The viability, T/C [5] was 10.3%, the viability, T/C [6] was 1.84% and the viability, T/C [7] was 108%. The viability, T/C [8] was 101%, the viability, T/C [9] was 102% and the viability, T/C [10] was 61.2%. It also gave a viability, T/C [11] of 7.59%, a viability, T/C [12] of 1.85% and a viability, T/C [13] of 104%. For the same compound, the viability, T/C [14] was 103%, the viability, T/C [15] was 97.9% and the viability, T/C [16] was 64.5%. For the same compound, the viability, T/C [17] was 7.44%, the viability, T/C [18] was 1.34% and the viability, T/C [19] was 104%. The viability, T/C [20] was 102%, the viability, T/C [21] was 99.9% and the viability, T/C [22] was 42.7%. The viability, T/C [23] was 5.84%, the viability, T/C [24] was 0.96% and the viability, T/C [25] was 104%. For the same compound, the viability, T/C [26] was 106%, the viability, T/C [27] was 105% and the viability, T/C [28] was 27.1%. It also gave a viability, T/C [29] of 4.72% and a viability, T/C [30] of 0.67%.
`O=C(c1cc(Cc2n[nH]c(=O)c3ccccc23)ccc1F)N1CCN(C(=O)C2CC2)CC1` + CC[C@@]1(O)C(=O)OCc2c1cc1n(c2=O)Cc2cc3c(CN(C)C)c(O)ccc3nc2-1 showed an IC50 (second compound 0.003 µM) of 27400 nM, an IC50 (second compound 0.00949 µM) of 23400 nM and an IC50 (second compound 0.03 µM) of 4080 nM. For the same compound, the IC50 (second compound 0.0949 µM) was less than 94.9 nM, the IC50 (second compound 0.3 µM) was less than 94.9 nM and the viability, T/C (second compound 0.003 µM, first compound 0.0949 µM) was 102%. For the same compound, the viability, T/C (second compound 0.003 µM, first compound 0.3 µM) was 96.3%, the viability, T/C (second compound 0.003 µM, first compound 0.949 µM) was 98% and the viability, T/C (second compound 0.003 µM, first compound 3 µM) was 97.6%. For the same compound, the viability, T/C (second compound 0.003 µM, first compound 9.49 µM) was 76%, the viability, T/C (second compound 0.003 µM, first compound 30 µM) was 47.8% and the viability, T/C (second compound 0.00949 µM, first compound 0.0949 µM) was 99.2%. For the same compound, the viability, T/C (second compound 0.00949 µM, first compound 0.3 µM) was 101%, the viability, T/C (second compound 0.00949 µM, first compound 0.949 µM) was 97.8% and the viability, T/C (second compound 0.00949 µM, first compound 3 µM) was 94.3%. It also gave a viability, T/C (second compound 0.00949 µM, first compound 9.49 µM) of 72.6%, a viability, T/C (second compound 0.00949 µM, first compound 30 µM) of 43.8% and a viability, T/C (second compound 0.03 µM, first compound 0.0949 µM) of 67.3%. It also gave a viability, T/C (second compound 0.03 µM, first compound 0.3 µM) of 72.8%, a viability, T/C (second compound 0.03 µM, first compound 0.949 µM) of 61.5% and a viability, T/C (second compound 0.03 µM, first compound 3 µM) of 58.8%. It also gave a viability, T/C (second compound 0.03 µM, first compound 9.49 µM) of 29.8%, a viability, T/C (second compound 0.03 µM, first compound 30 µM) of 12.8% and a viability, T/C (second compound 0.0949 µM, first compound 0.0949 µM) of 19.8%. It also gave a viability, T/C (second compound 0.0949 µM, first compound 0.3 µM) of 21.7%, a viability, T/C (second compound 0.0949 µM, first compound 0.949 µM) of 20.8% and a viability, T/C (second compound 0.0949 µM, first compound 3 µM) of 18%. For the same compound, the viability, T/C (second compound 0.0949 µM, first compound 9.49 µM) was 12%, the viability, T/C (second compound 0.0949 µM, first compound 30 µM) was 7.08% and the viability, T/C (second compound 0.3 µM, first compound 0.0949 µM) was 3.58%. The viability, T/C (second compound 0.3 µM, first compound 0.3 µM) was 3.79%, the viability, T/C (second compound 0.3 µM, first compound 0.949 µM) was 4.35% and the viability, T/C (second compound 0.3 µM, first compound 3 µM) was 4.53%. For the same compound, the viability, T/C (second compound 0.3 µM, first compound 9.49 µM) was 3.36% and the viability, T/C (second compound 0.3 µM, first compound 30 µM) was 3.46%.
`Cn1ncnc1[C@H]1c2n[nH]c(=O)c3cc(F)cc(c23)N[C@@H]1c1ccc(F)cc1` + Cn1nnc2c(C(N)=O)ncn2c1=O gave an IC50 (second compound 1 µM) of 1580 nM, an IC50 (second compound 3.16 µM) of 1470 nM and an IC50 (second compound 10 µM) of 1100 nM. For the same compound, the IC50 (second compound 31.6 µM) was 131 nM, the IC50 (second compound 100 µM) was less than 9.49 nM and the viability, T/C [1] was 99%. The viability, T/C [2] was 99.2%, the viability, T/C [3] was 94.3% and the viability, T/C [4] was 99.9%. The viability, T/C [5] was 82.9%, the viability, T/C [6] was 8.45% and the viability, T/C [7] was 100%. It also gave a viability, T/C [8] of 99.9%, a viability, T/C [9] of 97.5% and a viability, T/C [10] of 95.4%. For the same compound, the viability, T/C [11] was 77.1%, the viability, T/C [12] was 6.31% and the viability, T/C [13] was 104%. The viability, T/C [14] was 98%, the viability, T/C [15] was 95.1% and the viability, T/C [16] was 94%. For the same compound, the viability, T/C [17] was 56.2%, the viability, T/C [18] was 6.77% and the viability, T/C [19] was 97.7%. For the same compound, the viability, T/C [20] was 77.7%, the viability, T/C [21] was 56.5% and the viability, T/C [22] was 35.6%. The viability, T/C [23] was 12.3%, the viability, T/C [24] was 3.26% and the viability, T/C [25] was 16.3%. It also gave a viability, T/C [26] of 12.1%, a viability, T/C [27] of 9.69% and a viability, T/C [28] of 7.58%. The viability, T/C [29] was 6.59% and the viability, T/C [30] was 1.86%.
